{
  "source": "patent EP0641363B1",
  "about": "“DETERGENT COMPOSITIONS CONTAINING COPOLYMERS” (UNILEVER PLC, priority 1992, dated 1993)",
  "test": "Calcium binding: titration with calcium chloride solution using a calcium-ion-selective electrode; binding constant calculated by the method of Tanford",
  "protocol": "The calcium binding properties of the polymers were measured by titration of the samples with a calcium chloride solution using a calcium-ion-selective electrode of the type Radiometer (Trade Mark) F2112Ca. The calcium binding constant pKCa2+ was calculated by the method of C Tanford in Chapter 8, Multiple Equilibria, Physical Chemistry of Macromolecules, John Wiley, New York, 1961.\nValues of pKCa2+ of 4.0 or above represent materials likely to be useful as detergency builders, either alone or in conjunction with other builder materials. The value for sodium tripolyphosphate is 6.0, and any figure higher than this indicates excellent building.",
  "data": [
    {"smiles": "O=P(O)(O)OP(=O)(O)OP(=O)(O)O", "note": "[sodium tripolyphosphate]", "values": [
      {"measurement": "pKCa2+", "result": 6.0}
    ]}
  ]
}
